From ChEMBL document CHEMBL1201862, “PubChem BioAssay data set” (2004)
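Briefly, cells in 96-well plates were exposed to five compound concentrations for 48 h, and endpoints were estimated by linear interpolation. GI50 marks 50% less growth.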 Calls of active or inactive are those of the source. No stated cut-off is given here; in the data, active = GI50 up to about 1.1 µM and inactive = higher.

Legend:
Assay in all cases: NCI tumour cell line growth inhibition, 48 h
SK-MEL-2 = test system: SK-MEL-2
COLO 205 = test system: COLO 205
DU-145 = test system: DU-145
786-0 = test system: 786-0
NCI-H460 = test system: NCI-H460
NCI-H23 = test system: NCI-H23
OVCAR-3 = test system: OVCAR-3
MDA-N = test system: MDA-N
KM12 = test system: KM12
OVCAR-5 = test system: OVCAR-5
A549 = test system: A549
NCI-H226 = test system: NCI-H226
SF-295 = test system: SF-295
CCRF-CEM = test system: CCRF-CEM
UO-31 = test system: UO-31
EKVX = test system: EKVX
MOLT-4 = test system: MOLT-4
MDA-MB-435 = test system: MDA-MB-435
HOP-62 = test system: HOP-62
LOX IMVI = test system: LOX IMVI

Measured: GI50

Cc1c(S(=O)(=O)c2ccccc2)c(N)n(CCN(C)C)c1C
inactive: SK-MEL-2 > 100 µM | COLO 205 > 100 µM | DU-145 > 100 µM | 786-0 > 100 µM | NCI-H460 > 100 µM | NCI-H23 > 100 µM | OVCAR-3 > 100 µM | MDA-N > 100 µM | KM12 > 100 µM | OVCAR-5 > 100 µM | A549 > 100 µM | NCI-H226 > 100 µM | SF-295 > 100 µM | CCRF-CEM > 100 µM | UO-31 > 100 µM | EKVX > 100 µM | MOLT-4 > 100 µM | MDA-MB-435 > 100 µM

COc1cc(C2C3=C(N=C4SC(C(C)=O)=C(C)N42)c2ccccc2CC3)cc(OC)c1OC (stereo unspecified)
inactive: SK-MEL-2 > 100 µM | COLO 205 54.3 µM | DU-145 > 100 µM | 786-0 > 100 µM | NCI-H23 > 100 µM | OVCAR-3 > 100 µM | HOP-62 97.9 µM | MDA-N 28.7 µM | KM12 > 100 µM | OVCAR-5 > 100 µM | LOX IMVI > 100 µM | A549 > 100 µM | NCI-H226 > 100 µM | SF-295 68.7 µM | CCRF-CEM > 100 µM | UO-31 > 100 µM | EKVX 85.5 µM | MOLT-4 > 10 µM | MDA-MB-435 57 µM

COc1cc(OC2OC(CO)C(O)C(O)C2O)c2c(O)c3c(=O)cc(C)oc3cc2c1 (stereo unspecified)
inactive: SK-MEL-2 > 100 µM | COLO 205 > 100 µM | DU-145 > 100 µM | NCI-H460 > 100 µM | NCI-H23 > 100 µM | OVCAR-3 > 100 µM | HOP-62 > 100 µM | MDA-N > 10 µM | KM12 > 100 µM | OVCAR-5 > 100 µM | LOX IMVI > 100 µM | A549 > 100 µM | NCI-H226 9.55 µM | SF-295 65.5 µM | CCRF-CEM > 100 µM | UO-31 > 100 µM | EKVX > 100 µM | MOLT-4 > 100 µM | MDA-MB-435 > 100 µM

CN(C)/N=N/c1ccc(NC=O)cc1
inactive: SK-MEL-2 > 100 µM | COLO 205 > 100 µM | DU-145 > 100 µM | 786-0 > 100 µM | NCI-H460 > 100 µM | OVCAR-3 > 100 µM | HOP-62 > 100 µM | MDA-N > 100 µM | KM12 > 100 µM | OVCAR-5 90.4 µM | LOX IMVI > 100 µM | A549 > 100 µM | SF-295 > 100 µM | CCRF-CEM 40.7 µM | UO-31 82.8 µM | EKVX > 100 µM | MOLT-4 55.8 µM | MDA-MB-435 > 100 µM

O=C1Nc2ccccc2C(=O)/C1=C/NC(=S)NCCc1ccccc1
inactive: SK-MEL-2 > 100 µM | COLO 205 > 100 µM | DU-145 > 100 µM | 786-0 > 100 µM | NCI-H460 > 100 µM | NCI-H23 > 100 µM | OVCAR-3 > 100 µM | HOP-62 > 100 µM | MDA-N > 100 µM | KM12 55.3 µM | OVCAR-5 > 100 µM | LOX IMVI > 100 µM | A549 > 100 µM | NCI-H226 > 100 µM | SF-295 > 100 µM | UO-31 > 100 µM | EKVX > 100 µM | MOLT-4 4.03 µM | MDA-MB-435 > 100 µM

C[C@]12CC[C@H](O)CC1=CC[C@@H]1[C@@H]2CC[C@]2(C)C(=O)CC[C@@H]12 [PRASTERONE]
inactive: SK-MEL-2 > 100 µM | COLO 205 > 100 µM | DU-145 > 100 µM | 786-0 > 100 µM | NCI-H23 > 100 µM | OVCAR-3 > 100 µM | MDA-N > 100 µM | KM12 > 100 µM | OVCAR-5 > 100 µM | LOX IMVI > 100 µM | A549 > 100 µM | NCI-H226 > 100 µM | SF-295 > 100 µM | UO-31 > 100 µM | EKVX 75.2 µM | MOLT-4 > 100 µM | MDA-MB-435 > 100 µM

CCOC(=O)CNC(=O)C(CSCc1ccc(Br)cc1)NC(=O)CCC(N)C(=O)OCC (stereo unspecified)
inactive: SK-MEL-2 > 50 µM | COLO 205 > 50 µM | DU-145 > 50 µM | 786-0 > 50 µM | NCI-H460 > 50 µM | NCI-H23 > 50 µM | OVCAR-3 > 50 µM | HOP-62 > 50 µM | MDA-N > 50 µM | KM12 40.6 µM | OVCAR-5 > 50 µM | A549 > 50 µM | SF-295 > 50 µM | CCRF-CEM > 50 µM | UO-31 > 50 µM | EKVX > 50 µM | MOLT-4 > 50 µM | MDA-MB-435 > 50 µM

NCC(=O)N[C@H]1c2ccsc2/C(=N/O)[C@H]1O
inactive: SK-MEL-2 > 100 µM | COLO 205 > 100 µM | DU-145 > 100 µM | NCI-H460 > 100 µM | NCI-H23 > 100 µM | OVCAR-3 > 100 µM | HOP-62 > 100 µM | MDA-N > 100 µM | OVCAR-5 > 100 µM | LOX IMVI > 100 µM | A549 > 100 µM | NCI-H226 > 100 µM | SF-295 > 100 µM | CCRF-CEM > 100 µM | UO-31 > 100 µM | EKVX > 100 µM | MOLT-4 > 100 µM | MDA-MB-435 > 100 µM

OC[P+](CO)(CO)C12CC3CC(CC(C3)C1)C2
inactive: SK-MEL-2 > 100 µM | COLO 205 > 100 µM | DU-145 > 100 µM | NCI-H460 76.4 µM | NCI-H23 > 88.3 µM | OVCAR-3 > 87.9 µM | HOP-62 > 100 µM | MDA-N > 100 µM | KM12 > 100 µM | OVCAR-5 > 100 µM | LOX IMVI 4.67 µM | A549 > 100 µM | NCI-H226 > 100 µM | SF-295 > 30.1 µM | CCRF-CEM 4.9 µM | UO-31 > 78.3 µM | EKVX > 100 µM | MOLT-4 26.4 µM | MDA-MB-435 > 100 µM

O=C1C(N2CCNCC2)=C(Cl)C(=O)c2ncccc21
inactive: SK-MEL-2 > 10 µM | COLO 205 > 10 µM | DU-145 6.79 µM | 786-0 > 10 µM | NCI-H460 > 10 µM | NCI-H23 > 10 µM | OVCAR-3 > 10 µM | HOP-62 > 10 µM | MDA-N 4.47 µM | KM12 > 10 µM | OVCAR-5 > 10 µM | A549 > 10 µM | NCI-H226 > 10 µM | SF-295 > 10 µM | CCRF-CEM 8.59 µM | EKVX > 10 µM | MOLT-4 2.44 µM | MDA-MB-435 4.6 µM

O=C1CC2(CCC(O)(c3cccc4ccccc34)C(C(=O)c3cccc4ccccc34)C2)C(=O)c2ccccc2N1 (stereo unspecified)
inactive: SK-MEL-2 > 100 µM | COLO 205 29.6 µM | DU-145 25.8 µM | NCI-H460 7.78 µM | NCI-H23 62.2 µM | OVCAR-3 39.9 µM | HOP-62 10.5 µM | MDA-N 18.4 µM | OVCAR-5 71.8 µM | LOX IMVI 32.8 µM | A549 > 100 µM | NCI-H226 > 100 µM | SF-295 12.6 µM | CCRF-CEM > 10 µM | UO-31 23.7 µM | EKVX 28.9 µM | MOLT-4 25.9 µM | MDA-MB-435 72.6 µM
